Bridge positions count the residues as written; N and C are the ends. Ends that are not written are not given here.

As usually defined, the IC50 is the concentration needed to halve the response being measured. The low end stands for higher potency, the high end for lower potency.

In one data set the test system is mice. Briefly: Open field test. Particulars: 1 mg/kg intramuscular, 4 h before; n = 6–7. It counts as in vivo, CD-1 mice. The method, then:
An open field test was carried out on mice to estimate the possible sedative effects of compounds administration. No statistically significant changes were detected between ASIC3 antagonist-treated groups and the control animals group in 5-min observations of 12 parameters.
Figure 2 Open field experiments on mice. Administration of compounds at a 1 mg/kg dose intramuscularly was done 4 h before of the measurements. (A) Travelling distance and (B) locomotion activity presented as mean ± SEM for 5-min recording period (n = 6–7).
Adult male CD-1 mice (Animal Breeding Facility Branch of Shemyakin-Ovchinnikov Institute of Bioorganic Chemistry, Russian Academy of Sciences, Pushchino, Russia) weighing 20–25 g were used. Animals that originally passed clinical examination that confirmed no deviations in health were divided into groups (at least eight male mice per group) using the principle of randomization. The average body weight of animals in each group was not statistically different between groups. Animals were housed at room temperature (23 ± 2 °C) and subjected to a 12-h light-dark cycle with food and water available ad libitum. All experiments were performed after receiving approval from the Animal Care and Use Committee of the Branch of the Institute of Bioorganic Chemistry, Russian Academy of Sciences (IBCh RAS) (Pushchino, Russia Federation). The samples were administered intramuscularly 2 h before testing (4 h in the open field test). The initial dose of 1 mg/kg was investigated for all samples, which was further reduced 5, 50, and 500 times for peptides.
In the locomotion measurements, exploration and anxiety were evaluated in the motor activity test on a computerized TSE Multi Conditioning System (TSE Systems GmbH, Bad Homburg, Germany). Four hours after the administration of the sample, the measurement was made, which lasted for 3 min. […]
The data significance in animal tests was determined by an analysis of variance followed by a Tukey’s test. […]

The next data set concerns hERG channels. Particulars: cited from earlier work. The method, then:
Moreover, APETx2 potentiates rat ASIC1b and ASIC2a at concentrations of 3–10 µM (30–100-fold higher than its ASIC3 inhibitory concentration), which may have implications for its use in in vivo experiments ...

The next data set deals with T1, human ASIC3 (Homo sapiens, UniProt Q9UHC3).
T1 construct: host or cells: Xenopus laevis oocytes (cRNA injection)
T1 sequence (Q9UHC3 1-531): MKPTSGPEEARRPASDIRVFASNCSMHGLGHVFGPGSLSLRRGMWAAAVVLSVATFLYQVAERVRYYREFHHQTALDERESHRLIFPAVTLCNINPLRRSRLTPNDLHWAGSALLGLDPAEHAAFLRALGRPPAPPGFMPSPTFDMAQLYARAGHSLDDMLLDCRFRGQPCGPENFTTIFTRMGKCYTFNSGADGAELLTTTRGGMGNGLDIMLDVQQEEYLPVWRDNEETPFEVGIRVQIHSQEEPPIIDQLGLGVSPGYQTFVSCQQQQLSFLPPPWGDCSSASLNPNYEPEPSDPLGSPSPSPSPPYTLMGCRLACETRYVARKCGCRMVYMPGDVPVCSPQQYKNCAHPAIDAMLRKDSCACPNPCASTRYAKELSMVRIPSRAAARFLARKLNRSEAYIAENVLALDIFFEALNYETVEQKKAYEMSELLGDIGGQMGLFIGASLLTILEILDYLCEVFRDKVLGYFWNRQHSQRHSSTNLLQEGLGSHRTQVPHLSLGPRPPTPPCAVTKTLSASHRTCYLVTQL
Description: Inhibition of transient hASIC3 current, two-electrode voltage clamp, Xenopus laevis oocytes. It counts as cell-based. The method, then:
The activity of ligands was checked on human ASIC3 (hASIC3) channels expressed in Xenopus laevis oocytes. […] Two different protocols were used to reveal the effects of ligands on sustained and transient components of acid-induced hASIC3 currents. The influence of the compounds on the transient current amplitude was estimated after preincubation for 15 s before the activation in a low alkali bath solution (pH 7.8), which ensured an absence of steady-state desensitization for the transient current (Figure 1A). The compounds’ inhibition effectiveness was calculated using the value of maximal amplitudes. […] The inhibitory effect was concentration-dependent and fit well using a logistic equation.
Figure 1 Comparison of ligands’ antagonistic effects on hASIC3 channels. Whole-cell currents were induced by pH drops and recorded at the holding potential −50 mV. (A) Effect of ligands on the transient component of current at conditioning pH 7.8. The control trace is shown first; (B) Effect of ligands on the sustained component at conditioning pH 7.3. The black line is the control trace, and the red line is the trace of activation in the presence of a ligand. Dose-response curves for transient (C) and sustained (D) currents’ inhibitions are shown. Data are shown as mean ± SEM (n = 4–6) and fitted with the logistic equation (solid lines).
X. laevis oocytes were removed surgically and defolliculated by collagenase (Sigma-Aldrich, Moscow, Russia). Oocytes were injected with 2.5 to 10 ng of human ASIC3 cRNA (AF057711.1). The cRNA transcripts were synthesised from a NaeI-linearized ASIC3 cDNA template (pcDNA3.1+humanASIC3 subcloned from clone EX-Q0260- B02 (GeneCopoeia, Inc., Rockville, MD USA) using a HiScribe T7 High Yield RNA Synthesis Kit (New England Biolabs, Ipswich, MA, USA) according to the manufacturer’s protocol for capped transcripts. After the injection, oocytes were kept for 3 to 6 days at 19° in a ND-96 medium containing (in mM) 96 NaCl, 2 KCl, 1.8 CaCl2, 1 MgCl2, and 5 HEPES titrated to pH 7.4 with NaOH supplemented with gentamycin (50 µg/mL). Two-electrode voltage clamp recordings were performed using a GeneClamp 500 amplifier (Axon Instruments, Union City, CA, USA), and the data were filtered at 20 Hz and digitized at 100 Hz by an AD converter L780 (LCard, Moscow, Russia) using in-house software. To induce transient and/or sustained currents, two different protocols with different conditioning pH were used. Microelectrodes were filled with a 3 M KCl solution. The working buffer solution was ND-96 titrated by NaOH to pH 7.8 or 7.3. The solution for the pH shift was constructed based on the ND-96 solution, in which 5 mM HEPES was replaced with 10 mM acetic acid (pH 4.0) or 10 mM MES (pH 5.5) in a supplementary 0.1% BSA solution. The duration of the activation pulses was 3.5 s.
The analysis of the electrophysiological data was performed using the OriginPro 8.6 programme.
In general terms: Two-electrode voltage clamp is typically applied to oocytes expressing channels or transporters.

The next data set has as its system ASIC3. Particulars: cited from earlier work. The text has this: (§1) An inhibition of ASIC3 was reported to be an attractive approach to producing analgesia. […] Other nonspecific substances can also influence ASIC3 activity.
The test system of data set [1] is voltage-gated Na^+-channels. Set-up: method as in PMID 22648244. Particulars: cited from earlier work.
Data set [2] relates to CFA-induced thermal hyperalgesia. The following applies: rats; cited from earlier work. Here is the method: An inhibition of ASIC3 was reported to be an attractive approach to producing analgesia. […] Other nonspecific substances can also influence ASIC3 activity. […] Several ligands with inhibitory properties were found for this receptor, each of which was able to induce analgesia in animal tests. The most well-known inhibitor APETx2 in various studies has been tested on models of acid-induced muscle pain model, CFA-induced inflammatory pain model (at doses of 0.07, 0.22 and 2.2 µM). Ugr9-1 was studied in models of CFA-induced thermal hyperalgesia and acetic acid writhing test (at doses of 0.5, 0.1, and 0.01 mg/kg). […] The nonspecific actions on other cellular targets and the changes of ASIC3 involvement in the inflammatory process induced by the high antagonists’ concentration for 2 h are suspected. We conclude that the inhibition of both components of ASIC3 currents could be beneficial but could be reversed by hormesis in high doses and during a long exposure to ...

For data set [3], the system named is proton-gated currents in DRG neurons. Also noted: method as in PMID 25395088. Particulars: cited from earlier work.
A further data set deals with animal models of pain. The following applies: cited from earlier work.
Another data set concerns ASIC1a. The following applies: cited from earlier work.
Excerpt: as §1

The test system of another data set is ASIC1b. Particulars: cited from earlier work.
Excerpt: as §1

As for “GTACSCGNSKGIYWFYRPSCPTDRGYTGSCRYFLGTCCTPAD (disulfide 4-37, 6-30, 20-38) [APETx2]”, the “Travelled distance, time spent freezing, distance in the central area versus control” value in the data set with mice is given as “each of these differences was nonsignificant”. In addition, the “Inhibition of hERG channels” value in the data set with hERG channels is “reducing the maximal current amplitude and shifting the voltage dependence of activation to more positive potentials”. It took 344 ± 80 nM to reach half-maximal inhibition at human ASIC3 (IC50).

Consider `COc1ccc2ccc(=O)oc2c1CC=C(C)C` [osthol], for which, in the data set with ASIC3, the “Inhibition of ASIC3” value was “inhibit ASIC3”. Also, the “Block of voltage-gated Na+-channels” value in [1] is recorded as “block voltage-gated Na^+-channels”.

In the case of `CC(C)C1c2cc(C3CC3c3ccc4cc(C(=N)N)ccc4c3)ccc2CCN1C` (stereo not drawn) [A-317567], the “Inhibition of ASIC3 sustained and transient currents” value with ASIC3 is “blocked ASIC3’s sustained and transient currents”. Further, in [2], the “Analgesic effect, CFA inflammatory thermal hyperalgesia” value is listed as “produced an analgesic effect”.

Take `COc1cc2c(cc1OC)[C@@H]1Cc3ccc(OC)c(OC)c3CN1CC2` [Levo-tetrahydropalmatine, reference compound]: the “Effect on amplitude of proton-gated currents” value in data set [3] is “decreased the amplitude of proton-gated currents”. Also, the “Nociceptive response to intraplantar acetic acid” value in the data set with animal models of pain (rats) is listed as “inhibited the nociceptive response to intraplantar acetic acid injections”.

For the molecule `CCCCNc1ccc(C(=O)OCCN(C)C)cc1` [tetracaine], the “Inhibition of transient ASIC3 currents” value in the data set on ASIC3 (dependence on extracellular pH) was “inhibit the transient ASIC3 currents in a concentration-dependent manner”. Further, in the data set with ASIC1a, the “Inhibition of ASIC1a currents” value was “inhibited the ASIC1a and ASIC1b currents”. Moreover, the “Inhibition of ASIC1b currents” value in the data set with ASIC1b is “inhibited the ASIC1a and ASIC1b currents”.

In the case of “psalmotoxin 1 (EDCIPKWKGCVNRHGDCCEGLECWKRRRSFEVCVPKTPKT; UniProt P60514 1-40, looked up) [reference compound]”, the “Analgesic effect by blockade of ASIC1a in CNS” value in the data set on animal models of pain (CNS) was “activation of the endogenous enkephalin pathway and potent analgesic effects”.

As for `N=C(N)NC(=O)c1nc(Cl)c(N)nc1N` [amiloride], the “Inhibition of ASICs / ASIC3” value with ASIC3 was “nonspecific inhibitory effect on ASICs”.

In the case of `O=C(O)c1ccccc1O` [salicylic acid], the “Inhibition of ASIC3 / ASICs currents” value with ASIC3 (sensory neurons and heterologous-expressed ASIC3) is “inhibit ASICs currents directly on sensory neurons and heterologous-expressed ASIC3 channels”.

(Values after paper PMC6316600, “Analgesic Activity of Acid-Sensing Ion Channel 3 (ASIС3) Inhibitors: Sea Anemones Peptides Ugr9-1 and APETx2 versus Low Molecular Weight Compounds” (Marine Drugs, 2018).)
